# How the values were obtained:
# MtPAPP [1] = biological target: T1, MtPAPP (Methanothermococcus thermolithotrophicus, UniProt A0AA82WPC3); test: X-ray crystallography, […] Å; assay type: binding; settings: co-crystallized with 2 mM PAP and MnCl2; partially occupied Mn2+ in active site
# T1 construct: recombinant in E. coli, codon-optimized gene in pET-28a(+) NdeI/BamHI, HisTrap, tag cleaved if necessary; DHH domain 1-180, linker 181-210, DHHA1 211-315
# T1 sequence (A0AA82WPC3 1-315): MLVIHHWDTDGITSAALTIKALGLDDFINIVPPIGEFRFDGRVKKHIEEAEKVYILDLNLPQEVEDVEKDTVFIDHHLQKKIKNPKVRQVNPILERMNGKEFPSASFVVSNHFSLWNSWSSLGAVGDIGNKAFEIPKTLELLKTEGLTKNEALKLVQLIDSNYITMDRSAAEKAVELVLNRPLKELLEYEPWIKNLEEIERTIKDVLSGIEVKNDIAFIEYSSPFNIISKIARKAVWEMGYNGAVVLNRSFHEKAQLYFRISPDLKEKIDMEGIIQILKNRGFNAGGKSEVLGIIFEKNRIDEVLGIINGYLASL
# MtAPSK = biological target: T2, MtAPSK (Methanothermococcus thermolithotrophicus, UniProt A0AA82WPC2); test: coupled NADH oxidation assay with MtATPS, pyrophosphatase, pyruvate kinase/lactate dehydrogenase; assay type: biochemical; settings: APS generated in situ by MtATPS; 2 mM ATP, Mg2+, pH 7.0, 35 °C
# T2 construct: gene cysC; recombinant in E. coli, codon-optimized gene in pET-28a(+) NdeI/BamHI, HisTrap, tag cleaved if necessary; homodimer
# MtATPS = biological target: T3, MtATPS (Methanothermococcus thermolithotrophicus, UniProt A0AA82WPC1); test: coupled NADH oxidation assay with MtAPSK, pyrophosphatase, pyruvate kinase/lactate dehydrogenase; assay type: biochemical; settings: 2.5 mM Na2SO4, 2 mM ATP, Mg2+, pH 7.0, 35 °C; pyrophosphatase rate-limiting
# T3 construct: gene sat; recombinant in E. coli, codon-optimized gene in pET-28a(+) NdeI/BamHI, HisTrap, tag cleaved if necessary; homodimer; domains 1-156, 164-314, 320-382
# T3 sequence (A0AA82WPC1 4-385): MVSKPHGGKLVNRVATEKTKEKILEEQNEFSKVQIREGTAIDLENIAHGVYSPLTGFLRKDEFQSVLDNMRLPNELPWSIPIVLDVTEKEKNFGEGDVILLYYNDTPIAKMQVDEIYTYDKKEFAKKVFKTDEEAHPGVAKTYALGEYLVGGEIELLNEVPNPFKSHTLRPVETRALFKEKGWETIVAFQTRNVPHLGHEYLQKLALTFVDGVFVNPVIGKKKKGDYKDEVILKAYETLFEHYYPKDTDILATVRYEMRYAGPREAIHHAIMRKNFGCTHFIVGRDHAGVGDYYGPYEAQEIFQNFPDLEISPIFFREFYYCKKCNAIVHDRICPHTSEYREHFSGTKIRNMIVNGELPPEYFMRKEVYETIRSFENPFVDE
# MtPAPSR [2] = biological target: T4, MtPAPSR (Methanothermococcus thermolithotrophicus, UniProt A0AA82WPC4); test: X-ray crystallography, […] Å; assay type: binding; settings: bound in alpha subunit; crystal for phasing co-crystallized with 0.5 mM FAD
# T4 construct: alpha and beta co-expressed in E. coli from pET-28a(+) NcoI/BamHI, C-terminal His-tag on alpha, anaerobic purification; alpha2beta2 heterotetramer; with Adenylylsulfate reductase subunit beta (PAPS reductase beta subunit)
# MtPAPSR [3] = biological target: T4, MtPAPSR; test: coupled assay, oxidation of reduced methyl viologen at […] nm; assay type: biochemical; settings: PAPS generated in situ by MtATPS and MtAPSK, PAP removed by MtPAPP; HEPES pH 7.0, Mn2+, Mg2+, 45 °C, anaerobic
# MtPAPP [4] = biological target: T1, MtPAPP; test: malachite green phosphate assay; assay type: biochemical; settings: 40 µM PAP, 50 µM MnCl2, Tris/HCl pH 7.64, 40 °C
# [5] = biological target: APS kinase from Methanothermococcus thermolithotrophicus (MtAPSK) (Methanothermococcus thermolithotrophicus); test: crystal structure; MtAPSK co-crystallized with 2 mM MgCl2, apo state with bound phosphate, sitting drop, 18 °C, aerobic
# [6] = biological target: ATP sulfurylase from Methanothermococcus thermolithotrophicus (MtATPS) (Methanothermococcus thermolithotrophicus); test: SEC; size exclusion chromatography of purified MtATPS; conditions in the supplement
# T4 sequence (A0AA82WPC4 entry or part of it): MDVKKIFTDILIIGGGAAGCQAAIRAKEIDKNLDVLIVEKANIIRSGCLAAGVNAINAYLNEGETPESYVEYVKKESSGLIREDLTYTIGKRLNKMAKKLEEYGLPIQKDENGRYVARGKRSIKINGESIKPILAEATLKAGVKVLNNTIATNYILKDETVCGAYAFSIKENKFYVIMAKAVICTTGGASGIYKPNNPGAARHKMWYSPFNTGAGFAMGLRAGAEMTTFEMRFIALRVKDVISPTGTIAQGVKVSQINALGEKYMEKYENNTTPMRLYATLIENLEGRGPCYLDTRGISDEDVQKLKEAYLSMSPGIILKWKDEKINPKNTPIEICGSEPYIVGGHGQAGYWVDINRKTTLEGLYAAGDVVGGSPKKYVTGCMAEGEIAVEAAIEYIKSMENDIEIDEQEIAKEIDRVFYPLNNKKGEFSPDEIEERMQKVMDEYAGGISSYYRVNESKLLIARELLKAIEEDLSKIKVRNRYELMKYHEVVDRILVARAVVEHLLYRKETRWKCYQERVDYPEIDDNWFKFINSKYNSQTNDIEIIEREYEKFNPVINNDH
# T4 sequence (A0AA82WPC5 entry or part of it, further chain): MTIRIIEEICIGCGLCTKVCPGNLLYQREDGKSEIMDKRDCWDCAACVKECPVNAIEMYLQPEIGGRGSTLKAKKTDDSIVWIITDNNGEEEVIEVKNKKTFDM
# T2 sequence (A0AA82WPC2 entry or part of it): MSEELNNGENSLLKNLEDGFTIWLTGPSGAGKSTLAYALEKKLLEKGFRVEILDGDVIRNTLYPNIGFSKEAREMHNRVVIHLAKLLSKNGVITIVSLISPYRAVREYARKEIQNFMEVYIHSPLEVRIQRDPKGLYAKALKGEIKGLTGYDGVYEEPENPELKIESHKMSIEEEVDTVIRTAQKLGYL
compound,measurement,setting,value
Nc1ncnc2c1ncn2[C@@H]1O[C@H](COP(=O)(O)O)[C@@H](O)[C@H]1O [AMP],"X-ray crystallography, 3.1 Å",MtPAPP [1],contained the product AMP and an ion in its active site
Nc1ncnc2c1ncn2[C@@H]1O[C@H](COP(=O)(O)OP(=O)(O)OP(=O)(O)O)[C@@H](O)[C@H]1O [ATP],"coupled NADH oxidation assay with MtATPS, pyrophosphatase, pyruvate kinase/lacta",MtAPSK,determined by the production of ADP which was coupled to NADH oxidation
same,"coupled NADH oxidation assay with MtAPSK, pyrophosphatase, pyruvate kinase/lacta",MtATPS,activity of the recombinantly expressed MtATPS and MtAPSK was tested via a coupled assay
Cc1cc2nc3c(=O)[nH]c(=O)nc-3n(C[C@H](O)[C@H](O)[C@H](O)COP(=O)(O)OP(=O)(O)OC[C@H]3O[C@@H](n4cnc5c(N)ncnc54)[C@H](O)[C@@H]3O)c2cc1C [FAD],"X-ray crystallography, 1.45 Å",MtPAPSR [2],"the α subunit, containing the flavin adenine dinucleotide (FAD)"
Nc1ncnc2c1ncn2[C@@H]1O[C@H](COP(=O)(O)OS(=O)(=O)O)[C@@H](OP(=O)(O)O)[C@H]1O [PAPS],"coupled assay, oxidation of reduced methyl viologen at 600 nm",MtPAPSR [3],"MtATPS, a pyrophosphatase and the MtAPSK were used to generate PAPS"
Nc1ncnc2c1ncn2[C@@H]1O[C@H](COP(=O)(O)O)[C@@H](OP(=O)(O)O)[C@H]1O [PAP],malachite green phosphate assay,MtPAPP [4],produced inorganic phosphate (Pi) from PAP at fast rates
O=S(=O)(O)O [SO42−],"coupled NADH oxidation assay with MtAPSK, pyrophosphatase, pyruvate kinase/lacta",MtATPS,activity of the recombinantly expressed MtATPS and MtAPSK was tested via a coupled assay
APS kinase from Methanothermococcus thermolithotrophicus (MtAPSK) (enzyme),stoichiometry N,[5],2
ATP sulfurylase from Methanothermococcus thermolithotrophicus (MtATPS) (enzyme),stoichiometry N,[6],2

# Source: PMC10322725, “Assimilatory sulfate reduction in the marine methanogen Methanothermococcus thermolithotrophicus” (Nature Microbiology, 2023)
